Laboratory results as given in patent publication US7037904B2, “Use of N-acetyl-D-glucosamine in the manufacture of pharmaceutical useful for suppressing side-effect of radiotherapy and chemotherapy” (Third Military Medical University, Chinese People's …, priority 2001, dated 2006).

How the values were obtained:
[1] = system: Proteus Mirabilis; experiment: Promoting wave test (bio-wave model); assay type: cell-based; details: final concentration of 0.5% on LB plate, 37° C.
Source text: I. Promoting Wave Test of the Compound of Formula (I) 1.

[2] = in vivo
Source text: • 1. acute toxicity test: including tests of administrating medicine by oral, Intravenous injection and maximum limit amount for administration; • 2. Ames test; • 3. micronucleus test of bone marrow cell of mouse; • 4. abnormal sexual test for the sperm of mouse; • 5. abnormal aberrance test for the chromosin of mouse's testis; • 6. chronic lethal test; • 7. subchronic toxicity (feed for 90 days) test; • 8. traditional aberrance-inducing test;

SMILES: CC(=O)N[C@@H]1[C@@H](O)[C@H](O)[C@@H](CO)O[C@H]1O [compound of formula (I), N-acetyl-D-glucosamine]
- promoting wave function (concentric ring pattern compared with control) [1]: there were also many fine waves on each ring emerged
- acute test dosage relative to the injection dosage for human being [2]: 300 times
- dosage at which acute toxicosis reaction had not appeared [2]: more than 2 g/kg
